Among the data in PubChem BioAssay (NCI) are GI50 and TGI values, retold here.

Test systems include HCT-116 colon; SNB-75 CNS; MOLT-4 leukemia; M14 melanoma; A549 NSCLC; MDA-MB-231 breast; DU-145 prostate; T-47D breast; SF-268 CNS; HS 578T breast.
Holding throughout (experiment): DTP human tumour cell line panel, 48 h

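The compound was tested at five concentrations on cells cultured in 96-well plates, with a 48-hour exposure period. GI50 is the concentration that inhibits growth by half. TGI denotes the concentration required for complete inhibition of growth.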 Some results are limits rather than exact numbers.

A word on the GI50: it is the concentration giving 50% growth inhibition. Broadly, the TGI is the concentration at which net growth stops. For `CNC(=O)Oc1cc(C(C)C)ccc1Sc1ccc(C(C)C)cc1OC(=O)NC`, the GI50 with HCT-116 colon was 2.68 µM; in the test with SNB-75 CNS, 2.88 µM; in the test on MOLT-4 leukemia it was 2.96 µM; in the test with M14 melanoma, 3.61 µM; with A549 NSCLC, 5.22 µM; in the test on MDA-MB-231 breast, 5.48 µM. Besides, the GI50 in the test with DU-145 prostate is 4.32 µM; in the test on T-47D breast, 10.2 µM; in the test with SF-268 CNS it was 5.36 µM; in the test on HS 578T breast, 4.7 µM. The TGI in the test with HCT-116 colon was found to be 15.2 µM; with SNB-75 CNS it was 12.2 µM; in the test with MOLT-4 leukemia it was 20.1 µM; with M14 melanoma, 16.3 µM; with A549 NSCLC it was 18.4 µM; in the test on MDA-MB-231 breast it was 19.4 µM. In addition, the TGI with DU-145 prostate worked out at 14.3 µM; in the test on T-47D breast it was 25.9 µM; in the test with SF-268 CNS, 19.4 µM; in the test with HS 578T breast it was 35.6 µM.

In the case of `O=C(N/N=C/c1ccc(Cl)cc1)c1ccc(NC(=O)c2ccccn2)cc1`, the GI50 is 11.8 µM in the test with HCT-116 colon; 5.52 µM with SNB-75 CNS; greater than 100 µM with MOLT-4 leukemia; 56.8 µM with M14 melanoma; 15.9 µM with A549 NSCLC; 27.3 µM in the test on MDA-MB-231 breast. Moreover, the GI50 in the test with DU-145 prostate is 27.2 µM; with T-47D breast, 21.2 µM; with SF-268 CNS, 16.1 µM; in the test with HS 578T breast, 21.1 µM. Besides, the TGI in the test on HCT-116 colon is greater than 100 µM; in the test on SNB-75 CNS, 24.9 µM; in the test on MOLT-4 leukemia, greater than 100 µM; with M14 melanoma, greater than 100 µM; with A549 NSCLC it was 68 µM; in the test on MDA-MB-231 breast, greater than 100 µM. Besides, the total growth inhibition concentration (TGI) in the test with DU-145 prostate is greater than 100 µM; with T-47D breast, greater than 100 µM; in the test on SF-268 CNS it was 95 µM; in the test with HS 578T breast it was greater than 100 µM.

Take `COc1cc2cc(NCc3cccc(Cl)c3)nc(C)c2cc1OC`: the GI50 with HCT-116 colon was 0.532 µM; with SNB-75 CNS it was 2.83 µM; in the test with MOLT-4 leukemia it was 3.21 µM; in the test with M14 melanoma, 0.52 µM; in the test with A549 NSCLC it was 3.21 µM; in the test on MDA-MB-231 breast, 1.18 µM. Also, the GI50 is 5.41 µM with DU-145 prostate, 0.459 µM with T-47D breast, 2.97 µM in the test with SF-268 CNS and 4.87 µM in the test with HS 578T breast. Further, the TGI is 9.63 µM with HCT-116 colon; 19.4 µM in the test with SNB-75 CNS; 30.4 µM in the test on MOLT-4 leukemia; 10.1 µM in the test with M14 melanoma; 37.6 µM with A549 NSCLC; 16.6 µM with MDA-MB-231 breast. In addition, the TGI in the test with DU-145 prostate came to 20.9 µM; in the test on T-47D breast it was 9.31 µM; in the test on SF-268 CNS, 23.9 µM; in the test on HS 578T breast, 56.7 µM.

As for `O=C(/C=C\c1ccc(O)c(O)c1)c1ccccc1O`, the GI50 in the test on HCT-116 colon was 11.9 µM; in the test on SNB-75 CNS it was 14.7 µM; with MOLT-4 leukemia it was 1.89 µM; in the test on M14 melanoma, 12.9 µM; in the test on A549 NSCLC, 17.1 µM; in the test with MDA-MB-231 breast, 9.51 µM. Further, the GI50 with DU-145 prostate was 11.7 µM; in the test on T-47D breast, 5.57 µM; in the test on SF-268 CNS it was 12.1 µM; with HS 578T breast, 17.2 µM. Moreover, the TGI with HCT-116 colon is 24.9 µM; in the test with SNB-75 CNS, 94.3 µM; with MOLT-4 leukemia, 97.5 µM; in the test with M14 melanoma, 29.9 µM; in the test with A549 NSCLC, greater than 100 µM; in the test with MDA-MB-231 breast it was 37 µM. Besides, the TGI in the test with DU-145 prostate is 45.3 µM; with T-47D breast, 45.5 µM; in the test with SF-268 CNS, 59 µM; in the test with HS 578T breast, 81.9 µM.

In the case of `COc1ccc(-c2nc3sc(-c4cc(OC)c(OC)c(OC)c4)nn3c2/C=C2/C(=O)Nc3ccc(F)cc32)cc1`, the GI50 was 14.2 µM in the test with HCT-116 colon; 10.3 µM in the test on SNB-75 CNS; 4.54 µM in the test with MOLT-4 leukemia; 5.51 µM in the test with M14 melanoma; 2.13 µM in the test with A549 NSCLC; 5.25 µM with MDA-MB-231 breast. Besides, the GI50 is 1.87 µM in the test with DU-145 prostate, 2.01 µM in the test with T-47D breast, 4.4 µM in the test on SF-268 CNS and 16.2 µM in the test on HS 578T breast. Also, the TGI in the test on HCT-116 colon was 40.5 µM; in the test with SNB-75 CNS it was 22.6 µM; with MOLT-4 leukemia, greater than 100 µM; in the test with M14 melanoma it was 28.1 µM; with A549 NSCLC, 5.26 µM; in the test on MDA-MB-231 breast, 20.7 µM. For the same compound, the TGI was 4.53 µM in the test on DU-145 prostate, 5.16 µM in the test on T-47D breast, 33.1 µM in the test with SF-268 CNS and greater than 100 µM with HS 578T breast.

With `Cc1cc(I)cc(CNCCN(C)C)c1O`, the GI50 in the test with HCT-116 colon is greater than 68 µM; with SNB-75 CNS, 49.4 µM; in the test with MOLT-4 leukemia, 44.6 µM; in the test on M14 melanoma, 33.9 µM; in the test with A549 NSCLC, 99.7 µM; in the test with MDA-MB-231 breast, greater than 59.5 µM. Further, the GI50 with DU-145 prostate was 98.8 µM; in the test with T-47D breast, 76.3 µM; with SF-268 CNS, 65.9 µM; in the test with HS 578T breast, 49.5 µM. In addition, the concentration for total growth inhibition (TGI) with HCT-116 colon, in the test with SNB-75 CNS, with MOLT-4 leukemia, in the test on M14 melanoma, in the test with A549 NSCLC and with MDA-MB-231 breast was greater than 100 µM in each case. In addition, the TGI with DU-145 prostate, in the test with T-47D breast, in the test with SF-268 CNS and with HS 578T breast was greater than 100 µM throughout.
